Converted amounts (≈) assume the structure as drawn. Where two headings read alike, the source gives them in different places.
Columns and labels:
[1] = test system: Plasmodium berghei (strain ANKA); assay: activity against Plasmodium berghei in vivo (infected mice); conditions: mice; for ED50: single administration po, dose reducing average erythrocyte infection rate by 50%, read-out: ED50 (po); for inhibition in vivo at 10 mg/kg: 48 hours after treatment (D+3)
Description: Test method for the determination of the activity against Plasmodium berghei in vivo
The preparations according to the present invention were tested on mice infected with malaria pathogens (Plasmodium berghei). Male albino mice (IBM:MORO(SPF), FUELLINSDORF) weighing about 25 g were used as the test animals. They were kept in climatized rooms at 21°-22° C. in groups of 5 animals per cage. They received ad libitum a diet feed with a low PABA content ("NAFAG FUTTER" No. 9009 PAB-45, PABA content 45 mg/kg) and drinking water. On the first day of the test (D0) the test animals were infected with Plasmodium berghei (strain ANKA). For this there was used heparinized blood of a donor mouse with about 30% parasitemia, which was diluted with physiological saline such that it contains 10^8 parasitized erythrocytes per ml. 0.2 ml of this suspension was injected intravenously (i.v.) into the mice to be treated and into the control mice. In untreated control animals the parasitemia normally reaches 30-40% on the third day after the infection (D+3) and the test animals die between days +5 and +7.
The substances to be tested were dissolved or suspended in distilled water or in a mixture of 7% Tween 80, 3% alcohol (96%) and water. Usually, 0.25 ml of this solution or suspension was administered once subcutaneously and perorally to groups of 5 test animals. Treatment was effected 24 hours after the infection. 10 control animals were treated in the same manner with solvent or suspension medium per test.
All substances were tested in a first test in a single dosage of 10 mg/kg. Only those substances which in this test (10 mg/kg) had shown a parasitaemia reduction of 90% were used for the titration.
48 hours after the treatment (D+3), blood smears were prepared from all animals using blood from tail veins and were stained with Giemsa. The average erythrocyte infection rate (parasitemia in %) in the control groups as well as in the groups which had been treated with the test compounds was determined by counting under a microscope. The difference in the average values of the infection rates of control group (100%) and treated groups was calculated and expressed as a percentage reduction (GI %). The ED50 or ED90 was determined mathematically by means of the JMP programme (nonlinear fit). The ED50 (ED90) in mg/kg is that dose which after single administration reduces the average erythrocyte infection rate by 50% (90%) in comparison to the control group.
Table 2 below contains data with respect to the activity measured against Plasmodium berghei in mice: GI % is the percentage reduction in the parasitemia after a single dose of 10 mg/kg of the test substance administered perorally (po) or subcutaneously (sc); ED50 and ED90 are the effective doses of the test substance administered perorally or subcutaneously.

[2] = test system: Plasmodium falciparum, chloroquine-resistant strain W2 Mef; assay: activity against P. falciparum in vitro, strain W2 Mef; type: cell-based; conditions: 48 h-72 h, read-out: IC50 (50% growth inhibition)
Description: (§1) Test method for the determination of the activity against P. falciparum in vitro
(§2) The preparations of the present invention were tested on intraerythrocytary stages of P. falciparum from asynchronous cultures according to the method of Desjardin et al. (Desjardins, R. E. et al: Quantitative assessment of antimalarial activity in vitro by a semiautomated microdilution technique. Antimicrob. Agents Chemother. 16, 710-718, (1979)).
(§3) The culture medium consisted of RPMI 1640 with the addition of 25 mM HEPES, 25 mM NaHCO3, […] neomycin and 10% human serum (A^+). Human-A^+ erythrocytes were used as the P. falciparum host cells. The parasites were maintained at 37° C. in an atmosphere of 3% O2, 4% CO2, 93% N2 and at 95% relative humidity.
(§4) In order to determine the activity, the preparations were dissolved in DMSO, pre-diluted in the culture medium to a suitable starting concentration and subsequently titrated-out into microtitre plates in the 2nd stage over 6-7 steps. After the addition of the parasite culture (0.7% parasitemia in 2.5% erythrocyte suspension), the test plates were incubated under the conditions given above for 48 h-72 h. The parasite growth in the different preparation concentrations was determined using [G-^3 H]-hypoxanthin incorporation compared to untreated control cultures on the same test plates. The 50% growth inhibition (IC50) was calculated according to logit regression analysis from the resulting dosage-activity curve.
(§5) The preparations were tested on at least one chloroquine-resistant and one chloroquine-sensitive P. falciparum strain. Additional sensitive and resistant strains were also included for further characterization.
(§6) Table 1 below contains the IC50 values measured in vitro for the growth inhibition of chloroquine-sensitive and chloroquine-resistant strains of the human pathogenic Plasmodium falciparum.

[3] = test system: Plasmodium falciparum, chloroquine-resistant strain K1; assay: activity against P. falciparum in vitro, strain K1; type: cell-based; conditions: Plasmodium falciparum; chloroquine-resistant strain K1; 48 h-72 h; read-out: IC50 (50% growth inhibition)
Description: as §1, §2, §3, §4, §5, §6

[4] = test system: Plasmodium falciparum, chloroquine-sensitive strain HB3; assay: activity against P. falciparum in vitro, strain HB3; type: cell-based; conditions: chloroquine-sensitive strain HB3, 48 h-72 h, read-out: IC50 (50% growth inhibition)
Description: as §1, §2, §3, §4, §5, §6

[5] = test system: Plasmodium falciparum, chloroquine-resistant strain RFCR3; assay: activity against P. falciparum in vitro, strain RFCR3; type: cell-based; conditions: chloroquine-resistant strain RFCR3, 48 h-72 h, read-out: IC50 (50% growth inhibition)
Description: as §1, §2, §3, §4, §5, §6

[6] = test system: Plasmodium falciparum, chloroquine-sensitive strain FCH5C2; assay: activity against P. falciparum in vitro, strain FCH5C2; type: cell-based; conditions: chloroquine-sensitive strain FCH5C2, 48 h-72 h, read-out: IC50 (50% growth inhibition)
Description: as §1, §2, §3, §4, §5, §6

[7] = test system: Plasmodium falciparum, chloroquine-sensitive strain NF54; assay: activity against P. falciparum in vitro, strain NF54; type: cell-based; conditions: Plasmodium falciparum; chloroquine-sensitive strain NF54; 48 h-72 h; read-out: IC50 (50% growth inhibition)
Description: as §1, §2, §3, §4, §5, §6

[8] = test system: Plasmodium falciparum, chloroquine-resistant strain 7G8; assay: activity against P. falciparum in vitro, strain 7G8; type: cell-based; conditions: chloroquine-resistant strain 7G8, 48 h-72 h, read-out: IC50 (50% growth inhibition)
Description: as §1, §2, §3, §4, §5, §6

[9] = test system: Plasmodium falciparum, chloroquine-resistant strain ItG2 F6; assay: activity against P. falciparum in vitro, strain ItG2 F6; type: cell-based; conditions: chloroquine-resistant strain ItG2 F6, 48 h-72 h, read-out: IC50 (50% growth inhibition)
Description: as §1, §2, §3, §4, §5, §6

[10] = test system: Plasmodium falciparum, chloroquine-resistant strain W2; assay: activity against P. falciparum in vitro, strain W2; type: cell-based; conditions: chloroquine-resistant strain W2, 48 h-72 h, read-out: IC50 (50% growth inhibition)
Description: as §1, §2, §3, §4, §5, §6

[11] = test system: Plasmodium falciparum, chloroquine-resistant strain Indo; assay: activity against P. falciparum in vitro, strain Indo; type: cell-based; conditions: chloroquine-resistant strain Indo, 48 h-72 h, read-out: IC50 (50% growth inhibition)
Description: as §1, §2, §3, §4, §5, §6

[12] = test system: Plasmodium falciparum, chloroquine-sensitive strain Ro7 3; assay: activity against P. falciparum in vitro, strain Ro7 3; type: cell-based; conditions: chloroquine-sensitive strain Ro7 3, 48 h-72 h, read-out: IC50 (50% growth inhibition)
Description: as §1, §2, §3, §4, §5, §6

[13] = test system: Plasmodium falciparum, chloroquine-sensitive strain RFMEF3; assay: activity against P. falciparum in vitro, strain RFMEF3; type: cell-based; conditions: chloroquine-sensitive strain RFMEF3, 48 h-72 h, read-out: IC50 (50% growth inhibition)
Description: as §1, §2, §3, §4, §5, §6

[14] = single dose 10 mg/kg po, read-out: GI % at 10 mg/kg (po): percentage reduction in the parasitemia
[15] = single dose 10 mg/kg sc, read-out: GI % at 10 mg/kg (sc): percentage reduction in the parasitemia

Structure (SMILES) | ED50 [1] | inhibition in vivo at 10 mg/kg [1, 14] | inhibition in vivo at 10 mg/kg [1, 15] | IC50 [2] | IC50 [3] | IC50 [4] | IC50 [5] | IC50 [6] | IC50 [7] | IC50 [8] | IC50 [9] | IC50 [10] | IC50 [11] | IC50 [12] | IC50 [13]
CN(C)CCNc1ccnc2cc(Cl)ccc12 [Example 5, N2-(7-Chloro-quinolin-4-yl)-N1,N1-dimethyl-ethane-1,2-diamine] | 3.3 mg/kg | 99.5% | 99% | 9 ng/mL (≈ 0.036 µM) | 7 ng/mL (≈ 0.028 µM) | 6 ng/mL (≈ 0.024 µM) | 6 ng/mL (≈ 0.024 µM) | 9 ng/mL (≈ 0.036 µM) | 4 ng/mL (≈ 0.016 µM) | 7 ng/mL (≈ 0.028 µM) | 4 ng/mL (≈ 0.016 µM) | 7 ng/mL (≈ 0.028 µM) | 4 ng/mL (≈ 0.016 µM) | – | –
CCN(CC)CCNc1ccnc2cc(Cl)ccc12 [Example 6, N2-(7-Chloro-quinolin-4-yl)-N1,N1-diethyl-ethane-1,2-diamine] | 3.5 mg/kg | 99% | 99% | – | 9 ng/mL (≈ 0.0324 µM) | 8 ng/mL (≈ 0.0288 µM) | 8 ng/mL (≈ 0.0288 µM) | 8 ng/mL (≈ 0.0288 µM) | 5 ng/mL (≈ 0.018 µM) | 9 ng/mL (≈ 0.0324 µM) | 5 ng/mL (≈ 0.018 µM) | 8 ng/mL (≈ 0.0288 µM) | 4 ng/mL (≈ 0.0144 µM) | – | –
Clc1ccc2c(NCCN3CCCC3)ccnc2c1 [Example 7, (7-Chloro-quinolin-4-yl)-(2-pyrrolidin-1-yl-ethyl)-amine] | – | – | – | 8 ng/mL (≈ 0.029 µM) | 8 ng/mL (≈ 0.029 µM) | 6 ng/mL (≈ 0.0218 µM) | 7 ng/mL (≈ 0.0254 µM) | 7 ng/mL (≈ 0.0254 µM) | 4 ng/mL (≈ 0.0145 µM) | 8 ng/mL (≈ 0.029 µM) | 5 ng/mL (≈ 0.0181 µM) | 7 ng/mL (≈ 0.0254 µM) | 4 ng/mL (≈ 0.0145 µM) | – | –
CN(C)CCCNc1ccnc2cc(Cl)ccc12 [Example 15, N3-(7-Chloro-quinolin-4-yl)-N1,N1-dimethyl-propane-1,3-diamine] | 2 mg/kg | 99.8% | 99.9% | 12 ng/mL (≈ 0.0455 µM) | 6 ng/mL (≈ 0.0227 µM) | 3 ng/mL (≈ 0.0114 µM) | 5 ng/mL (≈ 0.019 µM) | 5 ng/mL (≈ 0.019 µM) | 2 ng/mL (≈ 0.00758 µM) | 7 ng/mL (≈ 0.0265 µM) | 3 ng/mL (≈ 0.0114 µM) | 7 ng/mL (≈ 0.0265 µM) | 3 ng/mL (≈ 0.0114 µM) | – | –
CCN(CC)CCCNc1ccnc2cc(Cl)ccc12 [Example 16, N3-(7-Chloro-quinolin-4-yl)-N1,N1-diethyl-propane-1,3-diamine] | 2 mg/kg | 99.9% | 99.9% | – | 9 ng/mL (≈ 0.0308 µM) | 5 ng/mL (≈ 0.0171 µM) | 8 ng/mL (≈ 0.0274 µM) | 6 ng/mL (≈ 0.0206 µM) | 3 ng/mL (≈ 0.0103 µM) | 9 ng/mL (≈ 0.0308 µM) | 5 ng/mL (≈ 0.0171 µM) | 9 ng/mL (≈ 0.0308 µM) | 4 ng/mL (≈ 0.0137 µM) | – | –
Clc1ccc2c(NCCCN3CCCC3)ccnc2c1 [Example 17, (7-Chloro-quinolin-4-yl)-(3-pyrrolidin-1-yl-propyl)-amine] | 4.6 mg/kg | 95% | 99% | – | 15 ng/mL (≈ 0.0518 µM) | 6 ng/mL (≈ 0.0207 µM) | 11 ng/mL (≈ 0.038 µM) | 4 ng/mL (≈ 0.0138 µM) | 3 ng/mL (≈ 0.0104 µM) | 14 ng/mL (≈ 0.0483 µM) | 7 ng/mL (≈ 0.0242 µM) | 14 ng/mL (≈ 0.0483 µM) | 7 ng/mL (≈ 0.0242 µM) | 6 ng/mL (≈ 0.0207 µM) | 8 ng/mL (≈ 0.0276 µM)

Source: patent US5596002A, “Method of treating chloroquine-resistant malaria with aminoquinoline derivatives” (Hoffmann-La Roche Inc., priority 1993, dated 1997)
